Reference: patent US5591742A, “Pyridopyrimidinone antianginal agents” (Pfizer Inc., priority 1992, dated 1997)

Assays:
[1] = target: T1, calcium/calmodulin (Ca/CAM)-independent cGMP PDE (Oryctolagus cuniculus, UniProt G1SX67); test: PDE inhibition: Ca/CAM-independent cGMP PDE from rabbit platelets; type: biochemical; conditions: Ca/CAM-independent cGMP PDE, rabbit platelets, in vitro
T1 construct: The PDE enzymes are isolated from rabbit platelets and rat kidney; from tissue; host or cells: rabbit platelets
Method: (§1) Phosphodiesterase activity
(§2) Compound affinities for cGMP and cAMP PDEs are assessed by determination of their IC50 values (the concentration of inhibitor required for 50% inhibition of enzyme activity). The PDE enzymes are isolated from rabbit platelets and rat kidney, essentially by the method of W. J. Thompson et al. (Biochem., 1971, 10, 311). The calcium/calmodulin (Ca/CAM)--independent cGMP PDE and the cGMP-inhibited cAMP PDE enzymes are obtained from rabbit platelets whilst, of the four major PDE enzymes of the rat kidney, the Ca/CAM-dependent cGMP PDE (fraction I) is isolated. Assays are performed using a modification of the "batch" method of W. J. Thompson and M. M. Appleman (Biochem., 1979, 18, 5228).

[2] = tested on: calcium/calmodulin (Ca/CAM)-independent cGMP PDE; test: as above; type: biochemical; conditions: IC50 cGMP-inhibited cAMP PDE / IC50 Ca/CAM-independent cGMP PDE
Method: as §1, §2

[3] = target: T2, cGMP-inhibited cAMP PDE (Oryctolagus cuniculus, UniProt G1ST54); test: PDE inhibition: cGMP-inhibited cAMP PDE from rabbit platelets; type: biochemical; conditions: in vitro
T2 construct: from tissue; host or cells: rabbit platelets
T2 sequence (G1ST54 1-1128): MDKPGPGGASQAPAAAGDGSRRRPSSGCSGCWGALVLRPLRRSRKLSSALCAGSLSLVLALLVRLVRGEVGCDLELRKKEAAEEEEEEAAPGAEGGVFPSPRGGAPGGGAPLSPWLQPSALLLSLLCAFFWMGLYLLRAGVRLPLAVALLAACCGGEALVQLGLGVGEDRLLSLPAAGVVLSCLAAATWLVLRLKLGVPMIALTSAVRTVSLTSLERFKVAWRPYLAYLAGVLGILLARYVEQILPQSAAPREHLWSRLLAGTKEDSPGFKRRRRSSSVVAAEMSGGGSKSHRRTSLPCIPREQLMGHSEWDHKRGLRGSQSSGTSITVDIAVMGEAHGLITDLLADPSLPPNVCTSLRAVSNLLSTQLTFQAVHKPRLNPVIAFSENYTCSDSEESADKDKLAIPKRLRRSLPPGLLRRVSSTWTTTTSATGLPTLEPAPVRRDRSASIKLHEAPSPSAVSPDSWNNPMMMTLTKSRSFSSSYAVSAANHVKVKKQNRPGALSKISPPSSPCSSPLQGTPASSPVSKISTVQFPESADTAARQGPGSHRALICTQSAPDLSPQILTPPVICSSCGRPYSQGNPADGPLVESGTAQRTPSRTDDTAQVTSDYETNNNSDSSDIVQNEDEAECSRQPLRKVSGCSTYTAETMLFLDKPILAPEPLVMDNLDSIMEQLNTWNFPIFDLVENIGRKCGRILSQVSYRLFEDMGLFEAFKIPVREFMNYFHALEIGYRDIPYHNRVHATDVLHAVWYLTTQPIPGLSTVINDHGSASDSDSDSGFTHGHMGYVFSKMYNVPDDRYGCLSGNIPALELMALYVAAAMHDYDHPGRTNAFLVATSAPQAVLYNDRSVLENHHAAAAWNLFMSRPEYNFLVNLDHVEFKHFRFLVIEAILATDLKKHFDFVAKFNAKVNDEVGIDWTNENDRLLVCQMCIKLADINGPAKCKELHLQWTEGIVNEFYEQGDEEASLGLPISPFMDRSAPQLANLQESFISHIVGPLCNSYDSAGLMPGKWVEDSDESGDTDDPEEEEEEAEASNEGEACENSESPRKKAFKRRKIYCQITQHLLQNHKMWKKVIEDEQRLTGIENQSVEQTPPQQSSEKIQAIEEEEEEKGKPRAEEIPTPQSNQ
Method: as §1, §2

[4] = Safety profile in rabbit (i.v. or i.d.); type: in vivo

| SMILES | IC50 [1] [nM] | IC50 [3] [nM] | SELECTIVITY RATIO [2] | untoward effects ([4]; doses up to 1 mg/kg i.v.) | untoward effects ([4]; doses up to 3 mg/kg i.d.) | untoward effects ([4]; doses up to 0.1 mg/kg i.v.) | untoward effects ([4]; doses up to 10 mg/kg i.d.) |
| --- | --- | --- | --- | --- | --- | --- | --- |
| CCCc1ccnc2c(=O)[nH]c(-c3cc(S(=O)(=O)NCCN4CCOCC4)ccc3OCC)nc12 [Example 1, 2-[2-Ethoxy-5-(2-morpholinoethylsulphamoyl)phenyl]-8-n-propylprido [3,2,d]pyrimidin-4 (3H) -one] | 21 | 19000 | 904 | – | no untoward effects being observed | – | – |
| CCCc1ccnc2c(=O)[nH]c(-c3cc(S(=O)(=O)N4CCN(C)CC4)ccc3OCC)nc12 [Example 2, 2-[2-Ethoxy-5(4-methyl-l-piperazinylsulphonyl)phenyl]-8-n-propylrido [3,2-d]pyrimidin-4(3H)-one] | 26 | 13000 | 500 | – | – | – | – |
| CCCc1ccnc2c(=O)[nH]c(-c3cc(S(=O)(=O)NCCN4CCNC4=O)ccc3OCC)nc12 [Example 8, 2-{2-Ethoxy-5-[2-(1-imidazolidin-2-onyl)ethyl-sulphamoyl]phenyl}-8-n-propylprido[3,2-d]pryimidin-4 (3H)-one] | – | – | – | – | no untoward effects being observed | – | – |
| CCOc1ccc(S(=O)(=O)N2CCN(C)CC2)cc1-c1nc2c(C#N)ccnc2c(=O)[nH]1 [Example 24, 8-Cyano-2-[2-ethoxy-5-(4-methyl-1-piperazinyl-sulphonyl)phenyl]pyrido[3,2d]pyrimidin-4(3H)-one] | 25 | > 100000 | > 4,000 | – | – | – | – |
| CCCc1ccnc2c(=O)[nH]c(-c3cc(S(=O)(=O)N4CCNCC4)ccc3OCC)nc12 [Example 3, 2-[2-Ethoxy-5-(1-piperazinylsulphonyl]phenyl]-8-n-propylprido [3,2-d]pyrimidin-4(3H) -one] | – | – | – | – | – | – | no untoward effects being observed |

Now from value to compound, other results behind:

| IC50 [1] [nM] | IC50 [3] [nM] | SMILES | SELECTIVITY RATIO [2] | untoward effects ([4]; doses up to 1 mg/kg i.v.) | untoward effects ([4]; doses up to 3 mg/kg i.d.) | untoward effects ([4]; doses up to 0.1 mg/kg i.v.) | untoward effects ([4]; doses up to 10 mg/kg i.d.) |
| --- | --- | --- | --- | --- | --- | --- | --- |
| 1.2 | 220 | CCCc1ccnc2c(=O)[nH]c(-c3cc(S(=O)(=O)N4CCC(C(=O)O)CC4)ccc3OCC)nc12 [Example 9, 2-[5-(4-Carboxypiperidinosulphonyl)-2-ethoxyphenyl]-8-n-propylprido [3,2-d]pyrimidin-4(3H)-one] | 183 | no untoward effects being observed | – | – | – |
| 19 | 4600 | CCCc1ccnc2c(=O)[nH]c(-c3cc(NS(=O)(=O)c4cccnc4)ccc3OCC)nc12 [Example 12A, 2-[2-Ethoxy-5-(3-pyridylsulphonylamino)phenyl]-8-n-propylpyrido [3,2-d]pyrimidin-4(3H) -one] | 242 | – | – | – | – |
| 9.8 | 11000 | CCCc1ccnc2c(=O)[nH]c(-c3cc(S(=O)(=O)N4CCN(CCO)CC4)ccc3OCC)nc12 [Example 7, 2-{2-Ethoxy-5-[4-(2-hydroxyethyl)-1-piperazinyl-sulphony]phenyl}-8-n-propylprido[3.2-d]pyrimidin-4(3H)-one] | 1,122 | – | – | no untoward effects being observed | – |
| 5.6 | 7600 | CCCc1ccnc2c(=O)[nH]c(-c3cc(S(=O)(=O)N4CCC(C(=O)OCC)CC4)ccc3OCC)nc12 [Example 4, 2-[2-Ethoxy-5-(4-ethoxycarbonylpiperidinosulphonyl)-phenyl]-8-n-propylprido[3,2-d]pyrimidin-4(3H) -one] | 1,357 | – | – | – | – |
| 14 | 8300 | CCCc1ccnc2c(=O)[nH]c(-c3cc(S(=O)(=O)N(C)CCC(=O)OCC)ccc3OCC)nc12 [Example 5, 2-[2 -Ethoxy-5-(N-2-ethoxycarbonylethyl-N-methyl-sulphamoyl)phenyl]-8-n-propylpyrido[3,2-d]pyrimidin-4(3H)-one] | 592 | – | – | – | – |
